# According to PMC6261997, “Synergistic enzymatic and bioorthogonal reactions for selective prodrug activation in living systems” (Nature Communications, 2018):
# Key:
# Type in all cases: cell-based
# Saos-2 cells = experiment: MTT cell viability / cytotoxicity assay, Saos-2 cells; details: MTT assay and clonogenic assay
# Experimental: (§1) Cells were plated in flat-bottom 96-well plates at a density of 3 × 10^3 cells per well. After 12 h of cell attachment, the cell culture medium was replaced with 100 μL of pre-warmed media containing the compounds at different concentrations. After 24–72 h of incubation, cell proliferation was assessed by the MTT assay. A fresh mixture of 10 μL of thiazolyl blue tetrazolium bromide (MTT) and 90 μL of medium were freshly added to each well. After incubation for 4 h, the medium was gently removed. The formazan crystals that formed were dissolved in 110 μL of DMSO, and the absorbance was subsequently measured with a plate reader (Perkin Elmer) at 490 nm. EC50 values were calculated using Origin software. To measure the cytotoxicity of 2, HeLa cells, HUVECs, Saos-2 cells and CCC-HEH-2 cells were incubated with 100 μL of 1–500 μM 2 for 24 h, and then, cell viability was determined. To measure the cytotoxicity of TCO-Dox or Dox, HeLa cells, HUVECs, Saos-2 cells or CCC-HEH-2 cells were incubated with 200 μL of 0.001–10 μM TCO-Dox or Dox for 72 h, and the cell viability was determined. To determine the cytotoxicity of activated Dox, HeLa cells, HUVECs, Saos-2 cells or CCC-HEH-2 cells were pre-incubated with 100 μL of 500 μM 2 for 6 h, and then, 2 was removed and 200 μL of 0.0001–10 μM TCO-Dox was added for 72 h of incubation, and cell viability was determined. […]
# Prodrug activation efficacy in cells: Cells were plated on flat bottom 96-well plates at a density of 3x10^3 cells per well. After 12 h attachment, cells were incubated with 100 µL 500 µM of 2 for 6 h before removing 2 and the addition of 200 µL 0.0001-10 µM of TCO-Dox. Cells were further incubated for 72 h before measuring the viability by the MTT […]
# Clonogenic assay of cells in vitro: Clonogenic assay was performed according to the standard protocol.6 2×10^5 attached cells were treated with 500 µM of 2 for 6 h in culture dishes. Cells were then detached, re-suspended in cultural medium and counted accurately. The cell suspension was diluted into the desired seeding concentration and cells were seeded in 6-well plates at a density of 200 cells per well for CCC-HEH-2 and 400 cells per well for HeLa, Saos-2 and HUVECs. After incubation for 10 days, the cultural medium was removed and cells were rinsed carefully with PBS. 2 mL of a mixture of 6.0% (vol/vol) glutaraldehyde and 0.5% (wt/vol) crystal violet was added and kept for 30 min.
# The glutaraldehyde crystal violet mixture was removed carefully. The colonies were rinsed with water and dried in normal air at room temperature. The number of the colonies was counted using a stereomicroscope.
# When untreated cells are plated as a single-cell suspension at low densities, they will grow to colonies. The plating efficiency (PE) is the ratio of the number of colonies to the […]
# (Supplementary Equation 1)
# The number of colonies that arise after treatment of cells, expressed in terms of PE, is called the surviving fraction (SF): […]
# [1] = MTT cell viability / cytotoxicity assay, HeLa cells; details: human; 500 μM 2, 24 h, MTT
# Experimental: as §1, with “[…],” for “Saos-2 cells or CCC-HEH-2 cells were pre-incubated with 100 μL of 500 μM 2 for 6 h,”
# Prodrug activation efficacy in cells: Cells were plated on flat bottom 96-well plates at a
# density of 3x10^3 cells per well. After 12 h attachment, cells were incubated with 100 µL
# 500 µM of 2 for 6 h before removing 2 and the addition of 200 µL 0.0001-10 µM of […]
# HUVECs = experiment: Intracellular Tz accumulation by fluorescence liberation from TCO-CMR, HUVECs; details: even in the presence of 500 μM 2
# Experimental: Next, we tested the intracellular accumulation of Tz via EISA in an attempt to differentiate cancer cells from normal cells. First, we investigated the accumulation of Tz in HeLa cells and HUVECs over time via fluorescence liberation from TCO-CMR (Fig. 3a). Each group of cells was pre-incubated with different concentrations of 2 ranging from 100 to 500 μM for 1, 2, 4, 6, 15 or 24 h. The cells were then washed with PBS thoroughly before the addition of an excessive amount of TCO-CMR (100 μL, 50 μM), and the reaction of TCO-CMR with the intracellular accumulated Tz was allowed to proceed for up to 24 h (Supplementary Fig. 8). In this experimental setting, the total liberated fluorescence was proportional to the amount of 3 accumulated inside the cells. […] Therefore, the optimized concentration of 2 (e.g. 500 μM) and incubation time (e.g. 6 h) were selected to differentiate between cancer and normal cells according to liberated fluorescence intensity (Fig. 3c). […]
# All cells were purchased from the National Infrastructure of Cell Line Resource (Beijing, China). […] After incubation for different durations (1–24 h), the cells were rinsed with PBS, and then 100 μL of 50 μM TCO-CMR (dissolved in PBS) was added for real-time detection of the fluorescence intensity of coumarin in a plate reader (Perkin Elmer).
structure (smiles),measurement,setting,value
"Cc1nnc(-c2ccc(CC(=O)NCCCCC(NC(=O)Cc3ccc4ccccc4c3)C(=O)NC(Cc3ccc(OP(=O)(O)O)cc3)C(=O)NC(Cc3ccccc3)C(=O)O)cc2)nn1 (stereo not drawn) [compound 2, NapK(Tz)YpF]",cytotoxicity of 2 against Saos-2 cells,Saos-2 cells,toxic to Saos-2 cells to some extent
same,"viability at 24 h, 500 μM",[1],> 85%
same,liberated fluorescence in HUVECs,HUVECs,only a negligible amount of fluorescence
